SMILES strings stand for the structures.

A word on the Ki: it is a measure of affinity in units of concentration, obtained from inhibition or displacement. Higher therefore signals a looser hold on the target.

The target of one experiment is T1, 5-hydroxytryptamine receptor 1A (Homo sapiens, UniProt P08908).
T1 sequence (P08908 whole entry): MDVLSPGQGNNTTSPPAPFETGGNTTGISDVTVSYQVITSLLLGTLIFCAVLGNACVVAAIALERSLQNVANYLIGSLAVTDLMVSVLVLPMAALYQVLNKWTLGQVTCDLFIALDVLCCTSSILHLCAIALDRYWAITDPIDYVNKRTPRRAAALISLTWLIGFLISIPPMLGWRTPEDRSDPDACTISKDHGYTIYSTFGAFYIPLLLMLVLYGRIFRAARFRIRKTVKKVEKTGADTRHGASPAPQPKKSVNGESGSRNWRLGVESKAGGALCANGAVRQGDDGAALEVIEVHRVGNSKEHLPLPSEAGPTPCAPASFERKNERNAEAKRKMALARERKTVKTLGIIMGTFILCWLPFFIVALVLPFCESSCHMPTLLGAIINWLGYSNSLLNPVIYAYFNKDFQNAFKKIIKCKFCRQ
Description: Radioligand Labeled Binding Assay. Here is the method: (§1) IC50 values for each test compound were determined from nonlinear regression analysis of data collected from ligand binding experiments. The inhibition constant (Ki) was calculated from IC50 value by the Cheng and Prusoff equation.
`CSc1ccccc1N1CCN(CCCCCC(=O)NC2CCCc3ccccc32)CC1` (configuration not stated) had an inhibitory constant (Ki) of 52.7 nM.

For `COc1ccccc1N1CCN(CCCCCC(=O)NC2CCCc3ccccc32)CC1` (configuration not stated), the inhibition constant (Ki) came out at 8.6 nM.

With `Cc1ccccc1N1CCN(CCCCCC(=O)NC2CCCc3ccccc32)CC1` (configuration not stated), affinity was put at a Ki of 279 nM.

Take `CC(=O)c1ccccc1N1CCN(CCCCCC(=O)NC2CCCc3ccccc32)CC1` (configuration not stated): the affinity, expressed as Ki, was 3.85 nM.

In turn, `O=C(CCCCCN1CCN(c2ccccc2O)CC1)NC1CCCc2ccccc21` (configuration not stated) returned an inhibitory constant (Ki) of 24 nM. Compared with the last compound, the Ki is about 6.2-fold higher.

In the case of `O=C(CCCCCN1CCN(c2ccccc2)CC1)NC1CCCc2ccccc21` (configuration not stated), the affinity, expressed as Ki, was 128 nM.

`O=C(CCCCCN1CCN(c2ccccc2Cl)CC1)NC1CCCc2ccccc21` (configuration not stated): affinity was put at a Ki of 96 nM. This Ki and that of the compound before are within 1.5-fold of each other.

As to `CS(=O)(=O)c1ccccc1N1CCN(CCCCCC(=O)NC2CCCc3ccccc32)CC1` (configuration not stated), affinity was put at a Ki of 3120 nM.

`NC(=O)c1ccccc1N1CCN(CCCCCC(=O)NC2CCCc3ccccc32)CC1` (configuration not stated) [2-{4-[5-(1,2,3,4-tetrahydronaphthalen-1-ylcarbamoyl)pentyl]piperazin-1-yl}benzamide] showed an inhibition constant Ki of 494 nM.

Compound `N#Cc1ccccc1N1CCN(CCCCCC(=O)NC2CCCc3ccccc32)CC1` (configuration not stated) [6-[4-(2-cyanophenyl)piperazin-1-yl]-N-(1,2,3,4-tetrahydronaphthalen-1-yl)hexanamide] showed a Ki of 16.6 nM.

For the compound `O=C(CCCCCN1CCN(c2ccccc2[N+](=O)[O-])CC1)NC1CCCc2ccccc21` (configuration not stated) [6-[4-(2-nitrophenyl)piperazin-1-yl]-N-(1,2,3,4-tetrahydronaphthalen-1-yl)hexanamide], the Ki was determined as 183 nM.

Another experiment deals with 5-hydroxytryptamine receptor 2A (Rattus norvegicus, UniProt P14842). Description: Radioligand Labeled Binding Assay. Here is the method: as §1
Chain of 5-hydroxytryptamine receptor 2A (P14842 whole entry): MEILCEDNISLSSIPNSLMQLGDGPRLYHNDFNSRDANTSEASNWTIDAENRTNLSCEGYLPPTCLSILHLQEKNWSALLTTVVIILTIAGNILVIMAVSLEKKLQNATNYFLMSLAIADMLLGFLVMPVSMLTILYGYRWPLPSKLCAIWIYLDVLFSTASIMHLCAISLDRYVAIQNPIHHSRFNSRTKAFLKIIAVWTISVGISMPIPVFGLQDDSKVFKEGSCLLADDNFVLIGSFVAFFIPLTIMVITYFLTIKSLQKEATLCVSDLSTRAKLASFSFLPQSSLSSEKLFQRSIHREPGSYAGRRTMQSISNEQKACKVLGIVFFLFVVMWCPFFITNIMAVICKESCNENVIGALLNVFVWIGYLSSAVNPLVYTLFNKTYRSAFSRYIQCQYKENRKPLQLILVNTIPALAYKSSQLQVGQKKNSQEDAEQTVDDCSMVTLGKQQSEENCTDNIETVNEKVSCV
Compound `COc1ccccc1N1CCN(CCCCCC(=O)NC2CCCc3ccccc32)CC1` (configuration not stated) returned an inhibition constant (Ki) of 1260 nM.
